Drawing on patent US11851419B2, “GLP-1R modulating compounds” (Gilead Sciences, Inc., priority 2020, dated 2023), this text covers EC50 for eleven compounds.

As a reminder, the EC50 is the concentration at which the effect is half-maximal. A higher EC50 goes with lower potency in that assay.

For this test, the target named is GLP-1R (Homo sapiens, UniProt P43220). The experiment in a line: GLP-1R Activation - cAMP Assay 2 (cAMP increase in CHO cells stably expressing GLP-1R, pre-spotted agonists). As to conditions: assay buffer or 100% Human Plasma (not given), 30 minutes at 37° C. The class given is cell-based. The method, then:
GLP-1R Activation—cAMP Assay 2
GLP-1R activation by small molecule agonists is quantified by measuring cAMP increase in CHO cells stably expressing GLP-1R (MultiSpan product #C1267-1a). 50 nL of agonists are pre-spotted in a 10 point dose response onto 384-well plate (Corning product #CL3826) using the Labcyte Echo System. The cells are harvested and plated in assay buffer (HBSS (Corning product #21-023-CV) with 20 mM Hepes (Gibco product #15630-080) and 0.1% BSA (Rockland Immunochemicals product #BSA-1000)) or 100% Human Plasma (Innovative Research product #50-643-396) at 1,000 cells/well, 10 µL/well, onto the pre-spotted plates. The cells are then incubated for 30 minutes at 37° C., 5% CO2. cAMP concentration increase is then detected using Cisbio's cAMP Gs Dynamic Kit (product #62AM4PEC) according to the manufacturer's protocol. The response is plotted against the log of the agonist concentration and fitted to a sigmoidal equation to determine the EC50.

Chain of GLP-1R (P43220 24-463): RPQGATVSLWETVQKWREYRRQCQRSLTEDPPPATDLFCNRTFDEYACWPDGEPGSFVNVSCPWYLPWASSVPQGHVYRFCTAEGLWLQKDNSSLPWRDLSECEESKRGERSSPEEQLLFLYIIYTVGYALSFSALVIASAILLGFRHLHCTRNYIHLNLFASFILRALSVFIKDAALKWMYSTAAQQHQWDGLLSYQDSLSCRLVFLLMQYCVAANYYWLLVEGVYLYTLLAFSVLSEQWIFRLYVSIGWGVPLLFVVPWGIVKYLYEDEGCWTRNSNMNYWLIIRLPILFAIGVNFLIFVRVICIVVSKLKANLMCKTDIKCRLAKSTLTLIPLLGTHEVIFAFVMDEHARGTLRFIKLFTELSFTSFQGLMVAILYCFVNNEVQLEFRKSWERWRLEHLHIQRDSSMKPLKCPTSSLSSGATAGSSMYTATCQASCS

Turning to `CC(C)(O)C#Cc1cc(C(=O)O)cc2c1nc(CN1CCC(c3cccc(OCc4ccc(C#N)cc4F)n3)CC1)n2C[C@@H]1CCO1` [Example 12], the 50% effective concentration (EC50) amounted to 0.81 nM.

In turn, `CC(C)(O)C#Cc1cc(C(=O)O)cc2c1nc(CN1CCN(c3cccc(OCc4ccc(C(N)=O)cc4F)n3)CC1)n2C[C@@H]1CCO1` [Example 13, 2-[[4-[6-[(4-carbamoyl-2-fluoro-phenyl)methoxy]-2-pyridyl]piperazin-1-yl]methyl]-7-(3-hydroxy-3-methyl-but-1-ynyl)-3-[[(2S)-oxetan-2-yl]methyl]benzimidazole-5-carboxylic Acid] came in with an EC50 of 31.9 nM.

On to `Cn1ccc(-c2cc3nc(CN4CCC(c5cccc(OCc6ccc(C#N)cc6F)n5)CC4)n(C[C@@H]4CCO4)c3cc2C(=O)O)n1` [Example 30, 2-[[4-[6-[(4-cyano-2-fluoro-phenyl)methoxy]-2-pyridyl]-1-piperidyl]methyl]-6-(1-methylpyrazol-3-yl)-3-[[(2S)-oxetan-2-yl]methyl]benzimidazole-5-carboxylic Acid], for which the response was half-maximal at 52.2 nM (EC50).

Consider `N#Cc1ccc(COc2cccc(C3CCN(Cc4nc5c(F)cc(C(=O)O)cc5n4C[C@@H]4CCO4)CC3)n2)c(F)c1` [Example 21], for which the half-maximal effective concentration (EC50) turned out to be 0.038 nM.

Compound `CC(C)(O)C#Cc1cc(C(=O)O)cc2c1nc(CN1CCN(c3cccc(OCc4ccc(C#N)cc4F)n3)CC1)n2C[C@@H]1CCO1` [Example 11, 2-[[4-[6-[(4-cyano-2-fluoro-phenyl)methoxy]-2-pyridyl]piperazin-1-yl]methyl]-7-(3-hydroxy-3-methyl-but-1-ynyl)-3-[[(2S)-oxetan-2-yl]methyl]benzimidazole-5-carboxylic Acid] had a 50% effective concentration (EC50) of 1.7 nM.

For `N#Cc1ccc(COc2cccc(N3CCN(Cc4nc5c(-c6ccccn6)cc(C(=O)O)cc5n4C[C@@H]4CCO4)CC3)n2)c(F)c1` [Example 6], the EC50 worked out at 2.6 nM.

The compound `Cn1cc(-c2cc3nc(CN4CCC(c5cccc(OCc6ccc(C#N)cc6F)n5)CC4)n(C[C@@H]4CCO4)c3cc2C(=O)O)cn1` [Example 17, (S)-2-((4-(6-((4-cyano-2-fluorobenzyl)oxy)pyridin-2-yl)piperidin-1-yl)methyl)-5-(1-methyl-1H-pyrazol-4-yl)-1-(oxetan-2-ylmethyl)-1H-benzo[d]imidazole-6-carboxylic Acid] had a half-maximal effective concentration (EC50) of 13.3 nM.

In the case of `COCCn1c(CN2CCC(c3cccc(OCc4ccc(C(N)=O)cc4F)n3)CC2)nc2c(F)c(Nc3ccccc3)c(C(=O)O)cc21` [Example 2, 2-((4-(6-((4-carbamoyl-2-fluorobenzyl)oxy)pyridin-2-yl)piperidin-1-yl)methyl)-4-fluoro-1-(2-methoxyethyl)-5-(phenylamino)-1H-benzo[d]imidazole-6-carboxylic Acid], it took 175 nM to reach a half-maximal effect (EC50). Compared with the last compound, the EC50 is about 13-fold higher.

`COCCn1c(C[C@H]2CC[C@H](c3cccc(OCc4ccc(C#N)cc4F)n3)CC2)nc2c(-c3ccn(C)n3)cc(C(=O)O)cc21` [Example 32, 2-(((1r,4r)-4-(6-((4-cyano-2-fluorobenzyl)oxy)pyridin-2-yl)cyclohexyl)methyl)-1-(2-methoxyethyl)-4-(1-methyl-1H-pyrazol-3-yl)-1H-benzo[d]imidazole-6-carboxylic Acid] came in with an EC50 of 10.6 nM. Compared with the last compound, the EC50 is about 17-fold lower.

In the case of `COCCn1c(CN2CCN(c3cccc(OCc4ccc(C#N)cc4F)n3)CC2)nc2c(F)c(Nc3ccccc3)c(C(=O)O)cc21` [Example 3, 2-((4-(6-((4-cyano-2-fluorobenzyl)oxy)pyridin-2-yl)piperazin-1-yl)methyl)-4-fluoro-1-(2-methoxyethyl)-5-(phenylamino)-1H-benzo[d]imidazole-6-carboxylic acid], it took 1.9 nM to reach a half-maximal effect (EC50).

For `Cn1ccc(-c2cc(C(=O)O)cc3c2nc(CN2CCC(c4ccnc(OCc5ccc(C#N)cc5F)n4)CC2)n3C[C@@H]2CCO2)n1` [Example 4, (S)-2-((4-(2-((4-cyano-2-fluorobenzyl)oxy)pyrimidin-4-yl)piperidin-1-yl)methyl)-4-(1-methyl-1H-pyrazol-3-yl)-1-(oxetan-2-ylmethyl)-1H-benzo[d]imidazole-6-carboxylic Acid], a half-maximal response (EC50) required 1.2 nM.
